Key:
Test in all cases: In-lysate competition binding with kinobeads, Jurkat lysate, iTRAQ MS, relative intensity of identified proteins (Table 22)
Details in all cases: DMSO control = 1.0
[1] = biological target: T1, proteins captured on kinobeads from Jurkat cell lysate (Homo sapiens, UniProt Q13557)
T1 construct: endogenous in cells; host or cells: Jurkat clone E6-1 lysate
Procedure: (§1) This example illustrates competition binding in cell lysates (see particularly the third aspect of the invention). A test compound, Bisindolylmaleimide VIII (Bis VIII, a well known kinase inhibitor; Davies et al., 2000. Specificity and mechanism of action of some commonly used protein kinase inhibitors. Biochemical Journal 351 (Pt 1): 95-105) was added to a cell lysate thereby allowing the test compound to bind to the target proteins in the lysate. Then the lysate was contacted with the kinobeads affinity matrix to capture remaining free target proteins. The proteins bound to the kinobeads matrix were then eluted with detergent-containing buffer, separated on a SDS-polyacryamide gel and analyzed by immunodetection (Western blots) or mass spectrometry detection.
(§2) For the quantitative detection of proteins by mass spectrometry proteins were eluted from the affinity matrix and subsequently separated by SDS-Polyacrylamide gel elecrophoresis. Suitable gel areas were cut out and subjected to in-gel proteolytic digestion with trypsin.
(§3) Four tryptic digest samples (corresponding to three different Bis VIII concentrations in the lysate and one DMSO control) were labeled with ITRAQ reagents and the combined samples were analyzed in a single LC-MS/MS mass spectrometry analysis followed by peak quantification in the MS/MS spectrum (Ross et al., 2004. Multiplexed protein quantitation in Saccharomyces cerevisiae using amine-reactive isobaric tagging reagents. Mol. Cell. Proteomics 3(12): 1154-1169). […] Binding curves for individual kinases are shown (FIG. 5). The relative intensity 50 (RI50) values representing the affinity of kinase-compound pairs are similar to IC50 values reported by kinase enzyme assays (Davies et al., 2000. Specificity and mechanism of action of some commonly used protein kinase inhibitors. Biochemical Journal 351 (Pt 1): 95-105).
(§4) Aliqots of Jurkat lysate (10 mg protein) were incubated with different Bis VIII concentrations for one hour at 4° C. (0.025 μM, 0.074 μM, 0.22 μM, 0.67 μM, 2.0 μM and 6.0 μM final concentration of Bis VIII). To this end Bis VIII solutions were prepared in 100% DMSO as solvent that corresponded to 200 fold desired final Bis VIII concentration (Bis VIII from Alexis Biochemicals cat. number ALX 270-056). Five μl of these solutions were added to 1 ml of lysate resulting in the indicated final concentrations. For a control experiment 5 μl of DMSO without Bis VIII were used.
(§5) To each preincubated lysate sample 40 μl of kinobeads (see example 1) were added and incubated for one hour at 4° C. During the incubation the tubes were rotated on an end-over-end shaker (Roto Shake Genie, Scientific Industries Inc.). Beads were collected by centrifugation, transfered to Mobicol-columns (MoBiTech 10055) and washed with 10 ml 1×DP buffer containing 0.4% NP40 detergent, followed by a wash with 5 ml 1×DP buffer with 0.2% NP40. To elute the bound proteins, 100 μl 2×SDS sample buffer was added, the column was heated for 30 minutes at 50° C. and the eluate was transferred to a microfuge tube by centrifugation. Proteins were then separated by SDS-Polyacrylamide electrophoresis (SDS-PAGE). The composition and preparation of buffers is described in example 2.
(§6) The peptide extracts of samples treated with different concentrations of the test compound (0.074 μM, 0.22 μM and 0.67 μM Bis VIII) and the solvent control (0.5% DMSO) were treated with different isomers of the isobaric tagging reagent (iTRAQ Reagents Multiplex Kit, part number 4352135, Applied Biosystems, Foster City, Calif., USA). The iTRAQ reagents are a set of multiplexed, amine-specific, stable isotope reagents that can label all peptides in up to four different biological samples enabling simultaneous identification and quantitation of peptides. The iTRAQ reagents were used according to instructions provided by the manufacturer. […]

[2] = biological target: T2, proteins captured on kinobeads from Jurkat cell lysate (Homo sapiens, UniProt Q16539)
T2 construct: endogenous in cells; host or cells: Jurkat clone E6-1 lysate
T2 sequence (Q16539 whole entry): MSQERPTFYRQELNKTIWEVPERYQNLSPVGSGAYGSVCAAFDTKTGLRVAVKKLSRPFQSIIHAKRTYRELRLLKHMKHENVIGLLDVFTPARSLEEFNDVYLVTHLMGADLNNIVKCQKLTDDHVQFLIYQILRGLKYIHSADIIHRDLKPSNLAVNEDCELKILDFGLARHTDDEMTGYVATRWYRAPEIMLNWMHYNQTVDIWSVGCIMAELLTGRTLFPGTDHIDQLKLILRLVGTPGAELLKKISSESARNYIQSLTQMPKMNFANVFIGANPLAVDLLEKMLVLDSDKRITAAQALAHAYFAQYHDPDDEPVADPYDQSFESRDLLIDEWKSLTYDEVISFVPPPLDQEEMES
Procedure: as §1, §2, §3, §4, §5, §6

[3] = biological target: T3, proteins captured on kinobeads from Jurkat cell lysate (Homo sapiens, UniProt Q08881)
T3 construct: endogenous in cells; host or cells: Jurkat clone E6-1 lysate
T3 sequence (Q08881 whole entry): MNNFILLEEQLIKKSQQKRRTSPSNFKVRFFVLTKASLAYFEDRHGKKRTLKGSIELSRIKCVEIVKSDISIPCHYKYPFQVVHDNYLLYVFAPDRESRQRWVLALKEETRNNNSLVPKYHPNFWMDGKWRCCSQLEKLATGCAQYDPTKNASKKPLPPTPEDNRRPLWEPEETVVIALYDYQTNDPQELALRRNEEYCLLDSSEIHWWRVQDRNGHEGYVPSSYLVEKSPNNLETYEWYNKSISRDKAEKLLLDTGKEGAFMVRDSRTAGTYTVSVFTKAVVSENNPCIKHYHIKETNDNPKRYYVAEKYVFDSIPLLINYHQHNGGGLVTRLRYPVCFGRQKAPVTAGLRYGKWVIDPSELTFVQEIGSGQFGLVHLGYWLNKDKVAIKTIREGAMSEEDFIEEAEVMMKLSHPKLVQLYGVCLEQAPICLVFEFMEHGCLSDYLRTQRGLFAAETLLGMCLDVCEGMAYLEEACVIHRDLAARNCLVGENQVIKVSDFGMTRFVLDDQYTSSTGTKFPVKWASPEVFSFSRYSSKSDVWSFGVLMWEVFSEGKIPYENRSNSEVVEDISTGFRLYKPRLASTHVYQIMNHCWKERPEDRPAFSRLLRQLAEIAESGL
Procedure: as §1, §2, §3, §4, §5, §6

[4] = biological target: T4, proteins captured on kinobeads from Jurkat cell lysate (Homo sapiens, UniProt Q13555)
T4 construct: endogenous in cells; host or cells: Jurkat clone E6-1 lysate
Procedure: as §1, §2, §3, §4, §5, §6

[5] = biological target: T5, proteins captured on kinobeads from Jurkat cell lysate (Homo sapiens, UniProt Q6PHR2)
T5 construct: endogenous in cells; host or cells: Jurkat clone E6-1 lysate
T5 sequence (Q6PHR2 whole entry): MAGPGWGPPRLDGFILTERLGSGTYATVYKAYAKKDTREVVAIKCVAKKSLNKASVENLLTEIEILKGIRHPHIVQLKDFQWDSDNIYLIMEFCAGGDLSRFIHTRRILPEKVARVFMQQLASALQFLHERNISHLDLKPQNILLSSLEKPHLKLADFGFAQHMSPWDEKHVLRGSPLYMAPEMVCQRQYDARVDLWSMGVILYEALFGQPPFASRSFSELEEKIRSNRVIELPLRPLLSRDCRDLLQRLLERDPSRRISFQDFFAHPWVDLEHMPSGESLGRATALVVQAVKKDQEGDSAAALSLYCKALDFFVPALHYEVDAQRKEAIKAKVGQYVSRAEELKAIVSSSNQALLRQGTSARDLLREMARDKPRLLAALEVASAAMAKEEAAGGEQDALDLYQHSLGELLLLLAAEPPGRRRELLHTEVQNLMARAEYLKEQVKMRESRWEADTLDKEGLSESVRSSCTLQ
Procedure: as §1, §2, §3, §4, §5, §6

[6] = biological target: T6, proteins captured on kinobeads from Jurkat cell lysate (Homo sapiens, UniProt P42684)
T6 construct: endogenous in cells; host or cells: Jurkat clone E6-1 lysate
T6 sequence (P42684 whole entry): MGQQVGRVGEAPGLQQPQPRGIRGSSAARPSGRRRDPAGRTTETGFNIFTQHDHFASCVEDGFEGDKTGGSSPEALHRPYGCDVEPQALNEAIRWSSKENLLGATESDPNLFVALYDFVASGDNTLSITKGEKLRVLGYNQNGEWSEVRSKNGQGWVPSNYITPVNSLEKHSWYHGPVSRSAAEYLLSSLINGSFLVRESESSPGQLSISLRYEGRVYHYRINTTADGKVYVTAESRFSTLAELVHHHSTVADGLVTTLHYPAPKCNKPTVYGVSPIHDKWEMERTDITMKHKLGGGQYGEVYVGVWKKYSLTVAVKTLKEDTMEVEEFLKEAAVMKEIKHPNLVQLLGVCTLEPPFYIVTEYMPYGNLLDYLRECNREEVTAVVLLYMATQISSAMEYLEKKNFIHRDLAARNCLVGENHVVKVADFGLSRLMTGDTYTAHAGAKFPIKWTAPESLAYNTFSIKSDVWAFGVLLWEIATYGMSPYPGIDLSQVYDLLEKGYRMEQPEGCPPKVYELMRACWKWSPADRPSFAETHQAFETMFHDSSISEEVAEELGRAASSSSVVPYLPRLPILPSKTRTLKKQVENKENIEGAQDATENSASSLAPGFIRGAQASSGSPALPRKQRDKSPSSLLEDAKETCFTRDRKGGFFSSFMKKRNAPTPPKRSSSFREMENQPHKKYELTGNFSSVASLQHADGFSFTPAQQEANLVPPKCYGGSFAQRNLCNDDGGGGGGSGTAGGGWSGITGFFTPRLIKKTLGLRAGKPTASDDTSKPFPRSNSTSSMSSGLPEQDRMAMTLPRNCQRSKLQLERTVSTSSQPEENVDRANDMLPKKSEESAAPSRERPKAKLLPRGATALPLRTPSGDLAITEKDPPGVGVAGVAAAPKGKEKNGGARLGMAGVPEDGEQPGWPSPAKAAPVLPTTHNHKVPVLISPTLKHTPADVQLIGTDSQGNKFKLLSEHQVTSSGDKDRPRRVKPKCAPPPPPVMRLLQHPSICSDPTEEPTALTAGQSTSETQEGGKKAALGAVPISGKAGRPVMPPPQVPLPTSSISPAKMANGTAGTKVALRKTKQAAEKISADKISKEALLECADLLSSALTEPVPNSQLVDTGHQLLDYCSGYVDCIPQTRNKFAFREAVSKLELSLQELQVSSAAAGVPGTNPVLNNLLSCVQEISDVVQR
Procedure: as §1, §2, §3, §4, §5, §6

[7] = biological target: T7, proteins captured on kinobeads from Jurkat cell lysate (Homo sapiens, UniProt Q9H0K1)
T7 construct: endogenous in cells; host or cells: Jurkat clone E6-1 lysate
T7 sequence (Q9H0K1 whole entry): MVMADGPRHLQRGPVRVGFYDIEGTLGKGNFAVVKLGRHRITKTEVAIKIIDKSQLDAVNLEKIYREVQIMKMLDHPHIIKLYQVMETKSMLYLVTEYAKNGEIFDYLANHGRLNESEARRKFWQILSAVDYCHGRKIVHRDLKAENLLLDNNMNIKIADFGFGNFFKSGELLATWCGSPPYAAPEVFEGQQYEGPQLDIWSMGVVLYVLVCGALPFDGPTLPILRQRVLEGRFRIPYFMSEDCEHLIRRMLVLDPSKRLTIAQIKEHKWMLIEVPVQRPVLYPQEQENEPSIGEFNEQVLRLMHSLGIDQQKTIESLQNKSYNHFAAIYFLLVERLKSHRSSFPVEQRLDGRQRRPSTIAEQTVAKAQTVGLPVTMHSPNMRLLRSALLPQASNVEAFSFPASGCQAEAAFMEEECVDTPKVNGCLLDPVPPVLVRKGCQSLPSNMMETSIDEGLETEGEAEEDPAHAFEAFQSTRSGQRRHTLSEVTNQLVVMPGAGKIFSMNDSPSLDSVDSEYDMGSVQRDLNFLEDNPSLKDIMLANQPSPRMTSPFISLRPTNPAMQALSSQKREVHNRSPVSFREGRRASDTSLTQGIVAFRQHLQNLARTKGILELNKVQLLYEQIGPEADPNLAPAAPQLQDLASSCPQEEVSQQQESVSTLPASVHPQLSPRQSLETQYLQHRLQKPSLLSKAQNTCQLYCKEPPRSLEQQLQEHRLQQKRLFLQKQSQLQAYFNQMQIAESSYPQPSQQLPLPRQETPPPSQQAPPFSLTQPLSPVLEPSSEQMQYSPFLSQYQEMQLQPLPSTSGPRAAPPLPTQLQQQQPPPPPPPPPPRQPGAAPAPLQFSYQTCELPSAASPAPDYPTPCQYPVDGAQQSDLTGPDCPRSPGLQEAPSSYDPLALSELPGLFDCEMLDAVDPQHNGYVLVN
Procedure: as §1, §2, §3, §4, §5, §6

[8] = biological target: T8, proteins captured on kinobeads from Jurkat cell lysate (Homo sapiens, UniProt P48729)
T8 construct: endogenous in cells; host or cells: Jurkat clone E6-1 lysate
Procedure: as §1, §2, §3, §4, §5, §6

[9] = biological target: T9, proteins captured on kinobeads from Jurkat cell lysate (Homo sapiens, UniProt P28482)
T9 construct: endogenous in cells; host or cells: Jurkat clone E6-1 lysate
T9 sequence (P28482 whole entry): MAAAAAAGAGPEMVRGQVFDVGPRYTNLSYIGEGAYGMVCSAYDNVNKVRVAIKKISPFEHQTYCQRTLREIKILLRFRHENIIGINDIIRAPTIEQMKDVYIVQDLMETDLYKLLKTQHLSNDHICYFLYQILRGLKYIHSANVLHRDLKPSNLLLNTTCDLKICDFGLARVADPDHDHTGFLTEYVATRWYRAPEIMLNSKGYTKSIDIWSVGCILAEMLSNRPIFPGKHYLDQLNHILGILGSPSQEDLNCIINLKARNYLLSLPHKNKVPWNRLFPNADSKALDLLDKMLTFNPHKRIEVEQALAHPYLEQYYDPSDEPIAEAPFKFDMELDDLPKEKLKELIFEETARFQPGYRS
Procedure: as §1, §2, §3, §4, §5, §6

[10] = biological target: T10, proteins captured on kinobeads from Jurkat cell lysate (Homo sapiens, UniProt Q9HCP0)
T10 construct: endogenous in cells; host or cells: Jurkat clone E6-1 lysate
T10 sequence (Q9HCP0 whole entry): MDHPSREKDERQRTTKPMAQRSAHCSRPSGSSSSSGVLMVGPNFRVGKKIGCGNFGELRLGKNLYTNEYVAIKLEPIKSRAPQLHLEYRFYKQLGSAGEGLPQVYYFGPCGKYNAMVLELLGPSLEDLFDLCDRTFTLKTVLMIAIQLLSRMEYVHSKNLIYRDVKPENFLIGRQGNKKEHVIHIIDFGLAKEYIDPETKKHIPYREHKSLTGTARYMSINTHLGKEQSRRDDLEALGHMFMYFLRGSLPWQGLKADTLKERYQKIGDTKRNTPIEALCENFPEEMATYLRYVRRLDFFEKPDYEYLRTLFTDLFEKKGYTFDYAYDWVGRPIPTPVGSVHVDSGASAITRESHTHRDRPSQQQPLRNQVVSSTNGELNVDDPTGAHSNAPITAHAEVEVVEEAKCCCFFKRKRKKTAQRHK
Procedure: as §1, §2, §3, §4, §5, §6

[11] = biological target: T11, proteins captured on kinobeads from Jurkat cell lysate (Homo sapiens, UniProt P06239)
T11 construct: endogenous in cells; host or cells: Jurkat clone E6-1 lysate
Procedure: as §1, §2, §3, §4, §5, §6

[12] = biological target: T12, proteins captured on kinobeads from Jurkat cell lysate (Homo sapiens, UniProt P54619)
T12 construct: endogenous in cells; host or cells: Jurkat clone E6-1 lysate
T12 sequence (P54619 whole entry): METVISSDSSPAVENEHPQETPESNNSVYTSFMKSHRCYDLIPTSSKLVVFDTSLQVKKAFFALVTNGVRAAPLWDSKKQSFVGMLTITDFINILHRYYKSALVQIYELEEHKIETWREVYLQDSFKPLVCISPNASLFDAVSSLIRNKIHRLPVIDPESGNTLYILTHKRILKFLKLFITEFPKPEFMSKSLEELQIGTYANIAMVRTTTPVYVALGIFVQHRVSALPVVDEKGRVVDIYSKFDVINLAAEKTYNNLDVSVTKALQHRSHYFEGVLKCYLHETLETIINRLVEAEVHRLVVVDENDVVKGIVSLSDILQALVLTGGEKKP
Procedure: as §1, §2, §3, §4, §5, §6

[13] = biological target: T13, proteins captured on kinobeads from Jurkat cell lysate (Homo sapiens, UniProt Q9Y478)
T13 construct: endogenous in cells; host or cells: Jurkat clone E6-1 lysate
T13 sequence (Q9Y478 whole entry): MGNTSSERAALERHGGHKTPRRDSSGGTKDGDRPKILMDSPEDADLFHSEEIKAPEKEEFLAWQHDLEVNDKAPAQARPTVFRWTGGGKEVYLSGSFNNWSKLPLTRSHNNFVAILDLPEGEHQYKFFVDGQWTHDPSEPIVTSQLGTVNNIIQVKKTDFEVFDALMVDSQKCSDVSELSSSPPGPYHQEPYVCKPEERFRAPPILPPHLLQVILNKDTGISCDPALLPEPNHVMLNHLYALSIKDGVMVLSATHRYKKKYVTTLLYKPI
Procedure: as §1, §2, §3, §4, §5, §6

[14] = biological target: T14, proteins captured on kinobeads from Jurkat cell lysate (Homo sapiens, UniProt Q14289)
T14 construct: endogenous in cells; host or cells: Jurkat clone E6-1 lysate
Procedure: as §1, §2, §3, §4, §5, §6

[15] = biological target: T15, proteins captured on kinobeads from Jurkat cell lysate (Homo sapiens, UniProt Q96GD4)
T15 construct: endogenous in cells; host or cells: Jurkat clone E6-1 lysate
Procedure: as §1, §2, §3, §4, §5, §6

Cn1cc(C2=C(c3cn(CCCN)c4ccccc34)C(=O)NC2=O)c2ccccc21 [Bis VIII, Bisindolylmaleimide VIII]
Relative Intensity, CaMK2d ([1]; 0.074 uM in lysate): 0.91 | Relative Intensity, CaMK2d ([1]; 0.67 uM in lysate): 0.88 | Relative Intensity, p38a (MAPK14) ([2]; 0.074 uM in lysate): 0.82 | Relative Intensity, p38a (MAPK14) ([2]; 0.67 uM in lysate): 0.93 | Relative Intensity, ITK ([3]; 0.074 uM in lysate): 0.80 | Relative Intensity, ITK ([3]; 0.67 uM in lysate): 0.91 | Relative Intensity, CaMK2g ([4]; 0.074 uM in lysate): 0.83 | Relative Intensity, CaMK2g ([4]; 0.67 uM in lysate): 0.88 | Relative Intensity, ULK3 ([5]; 0.074 uM in lysate): 0.95 | Relative Intensity, ULK3 ([5]; 0.67 uM in lysate): 1.15 | Relative Intensity, ARG (ABL2) ([6]; 0.074 uM in lysate): 0.96 | Relative Intensity, ARG (ABL2) ([6]; 0.67 uM in lysate): 0.91 | Relative Intensity, QIK (SNF1LK2) ([7]; 0.074 uM in lysate): 0.93 | Relative Intensity, QIK (SNF1LK2) ([7]; 0.67 uM in lysate): 0.98 | Relative Intensity, CK1a (CSNK1A1) ([8]; 0.074 uM in lysate): 0.97 | Relative Intensity, CK1a (CSNK1A1) ([8]; 0.67 uM in lysate): 1.02 | Relative Intensity, Erk2 (MAPK1) ([9]; 0.074 uM in lysate): 0.89 | Relative Intensity, Erk2 (MAPK1) ([9]; 0.67 uM in lysate): 0.98 | Relative Intensity, CK1g1 (CSNK1G1) ([10]; 0.074 uM in lysate): 1.01 | Relative Intensity, CK1g1 (CSNK1G1) ([10]; 0.67 uM in lysate): 0.96 | Relative Intensity, LCK ([11]; 0.074 uM in lysate): 0.87 | Relative Intensity, LCK ([11]; 0.67 uM in lysate): 0.94 | Relative Intensity, PRKAG1 ([12]; 0.074 uM in lysate): 0.78 | Relative Intensity, PRKAG1 ([12]; 0.67 uM in lysate): 0.68 | Relative Intensity, PRKAB1 ([13]; 0.074 uM in lysate): 0.91 | Relative Intensity, PRKAB1 ([13]; 0.67 uM in lysate): 0.79 | Relative Intensity, PYK2 (PTK2B) ([14]; 0.074 uM in lysate): 0.82 | Relative Intensity, PYK2 (PTK2B) ([14]; 0.67 uM in lysate): 0.74 | Relative Intensity, AurB (AURKB) ([15]; 0.074 uM in lysate): 0.95 | Relative Intensity, AurB (AURKB) ([15]; 0.67 uM in lysate): 0.97

From patent publication US20090238808A1, “Process for the identification of novel enzyme interacting compounds” (priority 2005, published 2009)
